# Test results taken from patent publication US8183287B2, “Pharmaceutical formulations and compositions of a selective antagonist of either CXCR2 or both CXCR1 and CXCR2 and methods of using the same for treating inflammatory disorders” (Schering Corporation, priority 2006, dated 2012).
# Like-named read-outs stand apart in the source and are kept apart here.
# What was measured:
# [1] = test system: neutrophil recruitment to the lungs; test: neutrophil recruitment to the lungs in response to challenge, oral dosing; assay type: in vivo; settings: orally administered
# Excerpt: (§1) WO 02/083624 describes this compound (as Examples 360.31 and 405), process of making the same, as well as treatment of chemokine-related diseases and cancer using the same. Likewise, WO 03/080053 describes the treatment of chemokine-related diseases using this compound.
# [2] = test system: pulmonary mucin production; test: pulmonary mucin production, prolonged treatment; assay type: in vivo
# Excerpt: as §1
# [3] = clinical study (i): single-dose oral pharmacokinetics, Formulation 1 capsules; assay type: in vivo, human; settings: for AUC / Cmax / Tmax / half-life: both sexes, human, plasma; for AUC: po; for AUC / Cmax / Tmax / half-life / Tf Mean: healthy subjects; for Tmax: read-out: Tmax Median; for half-life: read-out: t1/2 Mean (converted)
# [4] = clinical study (iii): multiple-dose oral pharmacokinetics, Formulation 1 capsules; assay type: in vivo, human; settings: for AUC(0-t): read-out: AUC (0-24 hr) Mean; for Tmax: read-out: Tmax Median
# [5] = clinical study in subjects with severe neutrophilic asthma; assay type: in vivo, human; settings: 12 weeks
# Procedure: This study, illustrated schematically in FIG. 5, is a randomized, double-blind, placebo-controlled study in subjects with severe neutrophilic asthma.
# Safety is assessed after approximately 30 subjects have completed 2 weeks of treatment in DRF. Variables include the effect on sputum neutrophils, PBNs, adverse events (AEs) and other safety data.
# Primary Efficacy Endpoint: The primary efficacy endpoint is the asthma exacerbation status (‘yes’ for presence of an exacerbation, ‘no’ for absence) during the 12-week treatment period.
# [6] = clinical study in subjects with severe psoriasis; assay type: in vivo, human; settings: 28 days
# Procedure: This study, illustrated schematically in FIG. 6A, was designed as a prospective, randomized, double-blind, placebo-controlled, parallel-group study in subjects with moderate to severe psoriasis.
# Each treatment is administered for 28 days. After twelve patients have completed dosing, a determination is made on the progression of the study as outlined in FIG. 6B.
# Clinical Assessment. At Screening, Baseline, and Days 1, 8, 15, 29, 36, and 57 the clinical psoriasis activity (PASI and physician global assessment) is determined for each patient.
# Efficacy Analyses: The primary efficacy endpoint is the response defined as a ≧50% decrease from baseline in the PASI at the end of 28 days of treatment as well as PGA. The data for the secondary endpoints detailed below are listed and summarized by treatment group using descriptive statistics. Specifically, • percent reduction on Day 28 relative to baseline of psoriatic plaque cellularity, with subpopulation analysis of neutrophils (CD50, Cathepsin G) and T-lymphocytes (CD3+, CD4+, CD8+) • change from baseline in mRNA expression of Gro-α, IL-8, and CXCR2 in the psoriatic plaque and peripheral blood • change from baseline in plasma chemokine concentrations including Gro-α and IL-8
# [7] = both, human, in vivo
# clinical = settings: both, human
# [8] = single oral dose 150 mg (+Filgrastim 300 μg)
# [9] = both sexes, human, plasma, oral, 10 mg, multiple-dose 10 mg, Day 1
# [10] = both sexes, human, plasma, oral, 10 mg, multiple-dose 10 mg, Day 14
# [11] = both sexes, human, plasma, oral, 30 mg, multiple-dose 30 mg, Day 1
# [12] = both sexes, human, plasma, oral, 30 mg, multiple-dose 30 mg, Day 14
# [13] = both sexes, human, plasma, oral, 50 mg, multiple-dose 50 mg, Day 1
# [14] = both sexes, human, plasma, oral, 50 mg, multiple-dose 50 mg, Day 14
smiles,measurement,setting,value
CC[C@@H](Nc1c(Nc2cccc(C(=O)N(C)C)c2O)c(=O)c1=O)c1ccc(C)o1 [Compound I],neutrophil recruitment to the lungs,[1]; mice,effectively blocks
same,neutrophil recruitment to the lungs,[1]; monkeys,effectively blocks
same,neutrophil recruitment to the lungs,[1]; rats,effectively blocks
same,pulmonary mucin production,[2]; mice,blocks
same,pulmonary mucin production,[2]; rats,blocks
same,effect of 300 μg filgrastim on the pharmacokinetic profile,[3]; 150 mg Compound I followed by filgrastim,did not alter the pharmacokinetic profile
same,AUC,"[3]; 10 mg, single oral dose 10 mg, read-out: AUC (tf) Mean",162 ng·h/mL
same,AUC,"[3]; 50 mg, single oral dose 50 mg, n = 4, read-out: AUC(I) Mean",768 ng·h/mL
same,AUC,"[3]; 50 mg, single oral dose 50 mg, read-out: AUC (tf) Mean",665 ng·h/mL
same,AUC,"[3]; 100 mg, single oral dose 100 mg, read-out: AUC (tf) Mean",827 ng·h/mL
same,AUC,"[3]; 100 mg, single oral dose 100 mg, read-out: AUC(I) Mean",878 ng·h/mL
same,AUC,"[3]; 150 mg, single oral dose 150 mg, read-out: AUC (tf) Mean",1530 ng·h/mL
same,AUC,"[3]; 150 mg, single oral dose 150 mg, read-out: AUC(I) Mean",1640 ng·h/mL
same,AUC,"[3]; 200 mg, single oral dose 200 mg, read-out: AUC (tf) Mean",1730 ng·h/mL
same,AUC,"[3]; 200 mg, single oral dose 200 mg, read-out: AUC(I) Mean",1810 ng·h/mL
same,AUC,"[3]; single oral dose 150 mg (+Filgrastim 300 μg), read-out: AUC (tf) Mean",1320 ng·h/mL
same,AUC,"[3]; single oral dose 150 mg (+Filgrastim 300 μg), read-out: AUC(I) Mean",1380 ng·h/mL
same,Cmax,[3]; single oral dose 10 mg,73.8 ng/mL
same,Tmax,[3]; single oral dose 10 mg,60 min
same,Cmax,[3]; single oral dose 50 mg,153 ng/mL
same,half-life,"[3]; single oral dose 50 mg, n = 4",948 min
same,Tmax,[3]; single oral dose 50 mg,45 min
same,Cmax,[3]; single oral dose 100 mg,261 ng/mL
same,Tmax,[3]; single oral dose 100 mg,45 min
same,half-life,[3]; single oral dose 100 mg,708 min
same,Cmax,[3]; [8],292 ng/mL
same,Tmax,[3]; [8],45 min
same,half-life,[3]; [8],780 min
same,Cmax,[3]; single oral dose 150 mg,364 ng/mL
same,Tmax,[3]; single oral dose 150 mg,45 min
same,half-life,[3]; single oral dose 150 mg,1000 min
same,Cmax,[3]; single oral dose 200 mg,416 ng/mL
same,Tmax,[3]; single oral dose 200 mg,37.5 min
same,half-life,[3]; single oral dose 200 mg,678 min
same,increase of Cmax and AUC with dose,[3]; from 10 to 200 mg,"dose-related, but not dose-proportional"
same,Tf Mean,[3]; single oral dose 10 mg,14 h
same,Tf Mean,[3]; single oral dose 50 mg,46 h
same,Tf Mean,[3]; single oral dose 100 mg,38 h
same,Tf Mean,[3]; [8],58 h
same,Tf Mean,[3]; single oral dose 150 mg,64 h
same,Tf Mean,[3]; single oral dose 200 mg,52 h
same,Cmax,[4]; [9],76 ng/mL
same,AUC(0-t),[4]; [9],137 ng·h/mL
same,Tmax,[4]; [9],30 min
same,Cmax,[4]; [10],78.1 ng/mL
same,AUC(0-t),[4]; [10],156 ng·h/mL
same,Tmax,[4]; [10],30 min
same,Cmax,[4]; [11],173 ng/mL
same,AUC(0-t),[4]; [11],397 ng·h/mL
same,Tmax,[4]; [11],30 min
same,Cmax,[4]; [12],159 ng/mL
same,AUC(0-t),[4]; [12],414 ng·h/mL
same,Tmax,[4]; [12],30 min
same,Cmax,[4]; [13],239 ng/mL
same,AUC(0-t),[4]; [13],681 ng·h/mL
same,Tmax,[4]; [13],45 min
same,Cmax,[4]; [14],279 ng/mL
same,AUC(0-t),[4]; [14],825 ng·h/mL
same,Tmax,[4]; [14],30 min
same,half-life,"[4]; both sexes, human, plasma, oral, multiple-dose 50 mg, Day 14, n = 7, read-out: t1/2 Mean (converted)",828 min
same,steady state achieved by,[4]; multiple doses,≤ 11 days
same,asthma exacerbation,[5],reduction in asthma exacerbation
same,PASI,[6],reduction in PASI
same,Median max values,[7],0.5 to 2 h
same,Vd/F,clinical; in vivo,1470 to 2200 L
same,half-life,"clinical; plasma, oral",678 to 1370 min
